Read-outs that look alike come from different tables or passages of the source.

Data set [1] concerns the target T1, MMP 13 (Homo sapiens, UniProt P45452). The data set is described as follows: MMP 13 inhibition (HTS). It is filed as biochemical.
The target of data set [2] is T2, TACE (Homo sapiens, UniProt P78536).
T2 construct: purchased Immunex
The data set is described as follows: Procedure for Measuring TACE Inhibition (fluorescent peptidyl substrate). The class given is biochemical. On the procedure: Using 96-well black microtiter plates, each well recieves a solution composed of 10 μL TACE (Immunex, final concentration 1 μg/mL), 70 μL Tris buffer, pH 7.4 containing 10% glycerol (final concentration 10 mM), and 10 μL of test compound solution in DMSO (final concentration, DMSO concentration <1%) and incubated for 10 minutes at room temperature. The reaction is initiated by addition of a fluorescent peptidyl substrate (final concentration 100 μM) to each well and then shaking on a shaker for 5 sec. The reaction is read (excitation 340 nm, emission 420 nm) for 10 min. and the increase in fluorescence over time is plotted as a linear line. The slope of the line is calculated and represents the reaction rate. […] The mean (x±sem) of the control rate is calculated and compared for statistical significance (p<0.05) with drug-treated rates using Dunnett's multiple comparison test.

Data set [3] deals with T1, MMP 13. The data set is described as follows: MMP 13 inhibition (standard/manual test). It is filed as biochemical.
Data set [4] has as its target T3, MMP 9 (Homo sapiens, UniProt P14780).
T3 construct: from tissue; host or cells: human neutrophils
The experiment in a line: In Vitro Gelatinase Assay (human neutrophil gelatinase B, thiopeptide substrate/DTNB). The class given is biochemical. The method, then:
The assay is based on the cleavage of the thiopeptide substrate ((Ac-Pro-Leu-Gly(2 Mercapto-4 methyl-pentanoyl)-Leu-Gly-OEt), Bachem Bioscience) by the enzyme, gelatinase, releasing the substrate product which reacts colorimetrically with DTNB ((5,5′-dithio-bis(2-nitro-benzoic acid)). The enzyne activity is measured by the rate of the color increase. The thiopeptide substrate is made up fresh as a 20 mM stock in 100% DMSO and the DTNB is dissolved in 100% DMSO as a 100 mM stock and stored in dark at room temperature. Both the substrate and DTNB are diluted together to 1 mM with substrate buffer (50 mM HEPES pH 7.5, 5 mM CaCl2) before use.
The increase in OD405 is plotted and the slope of the line is calculated which represents the reaction rate.
The mean (x±sem) of the control rate is calculated and compared for statistical significance (p<0.05) with drug-treated rates using Dunnett's multiple comparison test.

For data set [5], the target named is T4, MMP 1 (Homo sapiens, UniProt P03956).
T4 construct: human recombinant fibroblast collagenase (truncated mw=18,828, WAR, Radnor)
T4 sequence (P03956 100-269 limits assumed): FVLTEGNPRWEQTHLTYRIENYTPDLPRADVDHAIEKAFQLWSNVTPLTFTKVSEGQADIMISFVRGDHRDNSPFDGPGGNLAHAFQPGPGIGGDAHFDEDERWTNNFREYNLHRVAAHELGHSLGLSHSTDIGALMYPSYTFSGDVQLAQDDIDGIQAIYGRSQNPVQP
The data set is described as follows: In Vitro Collagenase Assay (human recombinant fibroblast collagenase, fluorogenic peptide substrate). The class given is biochemical. Particulars: for IC50: read-out: MMP 1 IC 50. The method, then: The assay is based on the cleavage of a peptide substrate ((Dnp-Pro-Cha-Gly-Cys(Me)-His-Ala-Lys(NMa)-NH2), Peptide International Inc.) by collagenase releasing the fluorescent NMa group which is quantitated on the fluorometer. Dnp quenches the NMa fluorescence in the intact substrate. […] Substrate is dissolved in methanol and stored frozen in 1 mM aliquots. […] For the assay, substrate is dissolved in HCBC buffer to a final concentration of 10 μM and collagenase to a final concentration of 5 nM. Compounds are dissolved in methanol, DMSO, or HCBC. The methanol and DMSO are diluted in HCBC to <1.0%. Compounds are added to the 96 well plate containing enzyme and the reaction is started by the addition of substrate.
The slope of the line is calculated and represents the reaction rate.
The mean (x±sem) of the control rate is calculated and compared for statistical significance (p<0.05) with drug-related rates using Dunnett's multiple comparison test.

T3 sequence (P14780 94-707): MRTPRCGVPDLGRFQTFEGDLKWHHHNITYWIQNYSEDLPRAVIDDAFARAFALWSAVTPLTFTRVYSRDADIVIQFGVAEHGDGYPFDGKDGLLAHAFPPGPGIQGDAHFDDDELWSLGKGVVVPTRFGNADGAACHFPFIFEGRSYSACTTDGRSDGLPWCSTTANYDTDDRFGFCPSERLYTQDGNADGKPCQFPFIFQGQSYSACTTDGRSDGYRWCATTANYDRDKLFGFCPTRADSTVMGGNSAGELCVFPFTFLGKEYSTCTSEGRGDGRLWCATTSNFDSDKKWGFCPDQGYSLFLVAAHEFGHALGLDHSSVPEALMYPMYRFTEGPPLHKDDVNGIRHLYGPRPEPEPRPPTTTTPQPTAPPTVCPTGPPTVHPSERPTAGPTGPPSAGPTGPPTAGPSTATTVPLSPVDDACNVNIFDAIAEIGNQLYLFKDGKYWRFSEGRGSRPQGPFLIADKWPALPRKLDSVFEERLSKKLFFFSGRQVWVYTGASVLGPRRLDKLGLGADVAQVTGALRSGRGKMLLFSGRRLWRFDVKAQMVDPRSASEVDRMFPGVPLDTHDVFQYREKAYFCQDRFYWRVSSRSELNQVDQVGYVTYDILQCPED
T2 sequence (P78536 215-824): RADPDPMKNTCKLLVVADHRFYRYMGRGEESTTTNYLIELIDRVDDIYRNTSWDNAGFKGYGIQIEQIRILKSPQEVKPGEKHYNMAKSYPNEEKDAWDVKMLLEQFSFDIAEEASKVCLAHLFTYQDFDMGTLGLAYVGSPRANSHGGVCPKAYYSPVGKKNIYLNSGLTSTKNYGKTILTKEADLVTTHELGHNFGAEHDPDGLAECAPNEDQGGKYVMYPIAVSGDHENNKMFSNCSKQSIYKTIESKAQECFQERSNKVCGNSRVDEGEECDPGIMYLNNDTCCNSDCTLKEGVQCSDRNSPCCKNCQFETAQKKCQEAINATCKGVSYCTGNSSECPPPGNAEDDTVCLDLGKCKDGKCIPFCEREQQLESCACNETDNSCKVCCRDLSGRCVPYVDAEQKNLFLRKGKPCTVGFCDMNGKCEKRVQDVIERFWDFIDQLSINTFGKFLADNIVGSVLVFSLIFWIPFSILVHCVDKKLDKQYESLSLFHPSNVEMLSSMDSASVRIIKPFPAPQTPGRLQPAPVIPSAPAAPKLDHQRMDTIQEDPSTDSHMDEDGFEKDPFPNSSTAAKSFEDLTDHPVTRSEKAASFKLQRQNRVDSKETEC

With “3-(1-Hydroxycarbamoyl-heptylsulfanyl)-benzoic acid hydroxyamide [Example 184]”, in data set [1], the “MMP 13 % inhibition at 36 nM (HTS)” value was determined as 16%. Besides, the “TACE % inhibition at 1 mM” value in data set [2] is on record as 24.8%.
Taken in the same sequence, the figures for “3-Bromo-2-chloro-thiophene-2-sulfonic acid 4-(1-hydroxycarbamoyl-heptylsulfonyl)-hydroxyamide [Example 239]” were 54% and 45.9%.
The melting point is the temperature, or range, at which the solid turns liquid. Compound `COc1ccc([S+]([O-])C(C(=O)NO)c2ccccc2)cc1` (stereo not drawn) [Example 8, N-Hydroxy-2-(4-methoxy-benzenesulfinyl)-2-phenyl-acetamide] had a melting point of 135 °C. The IC50 in data set [3] (read-out: MMP 13 IC 50) amounted to 308 nM. For the same compound, in data set [4] (read-out: MMP 9 IC 50), the IC50 amounted to 0.346 µM.
As for `COc1ccc(S(=O)(=O)C(C)(Cc2ccc(OCCN3CCCCC3)cc2)C(=O)NO)cc1` (stereo not drawn) [Example 17, N-Hydroxy-2-(4-methoxy-benzenesulfonyl)-2-methyl-3-[4-(2-piperidin-1-yl-ethoxy)-phenyl]-proponamide], the IC50 in data set [5] came out at 0.239 µM; in data set [4] (read-out: MMP 9 IC 50) it was 0.0089 µM. Also, the “TACE % inhibition at 1 micromolar” value in data set [2] came to 41.00%.
As for `CCOc1ccc(S(=O)(=O)C(C)(Cc2ccc(OCCN(CC)CC)cc2)C(=O)NO)cc1` (stereo not drawn) [Example 25, N-Hydroxy-2-(4-ethoxy-benzenesulfonyl)-2-methyl-3-[4-(2-N,N-diethylamino-ethoxy)-phenyl]-propionamide], the IC50 in data set [3] (read-out: MMP 13 IC 50) worked out at 8 nM; in data set [4] (read-out: MMP 9 IC 50) it was 0.0267 µM.
For the compound `CCCC(Cc1ccc(OCCN2CCOCC2)cc1)(C(=O)NO)S(=O)(=O)c1ccc(OC)cc1` (stereo not drawn) [Example 35, 2-(4-Methoxy-benzenesulfonyl)-2-[4-(2-morpholin4yl-oxy)-benzyl]-pentanoic acid hydroxyamide], the IC50 in data set [5] was determined as 0.456 µM; in data set [3] (read-out: MMP 13 IC 50), 48.2 nM; in data set [4] (read-out: MMP 9 IC 50) it was 0.234 µM.
For orientation: inhibition means the relative decrease from the control value, in per cent. In turn, `COc1ccc(CS(=O)(=O)C(C)(Cc2ccccc2)C(=O)NO)cc1` (stereo not drawn) [Example 41, N-Hydroxy-2-(4-methoxy-phenylmethanesulfonyl)-2-methyl-3-phenyl propionic acid hydroxamide] registered a melting point of 58 to 59 °C. Further, in data set [5], the IC50 turned out to be 0.1 µM. In addition, the inhibition at 1 µM in data set [2] (read-out: TACE % inhibition at 1 micromolar) was 15.5%.
`CC(Cc1ccc(OCCN2CCCCC2)cc1)(C(=O)NO)S(=O)(=O)c1cccs1` (stereo not drawn) [Example 45, 2-Methyl-3-4-(2-piperdin-1-yl-ethoxy)-phenyl-2-(thiophene-2-sulfonyl)-propionic acid hydroxamide]: the “MMP 1 % inhibition at 1 micromolar” value in data set [5] was found to be 49%. In addition, the “TACE % inhibition at 1 micromolar” value in data set [2] stood at 20.4%. Also, the “MMP 9 % inhibition at 1 micromolar” value in data set [4] came to 48.6%.
For `CC(Cc1ccccc1)(C(=O)NO)S(=O)(=O)c1cccs1` (stereo not drawn) [Example 48, 2-Methyl-3-phenyl-2-(thiophene-2-sulfonyl)-propionic acid hydroxamide], in that order: 99.1%, 51.1% and 79.1%.
With `CC(C(=O)O)S(=O)(=O)CCCCCCCCS(=O)(=O)C(C)C(=O)NO` (stereo not drawn) [Example 49, 2-[8-(1-carboxy-ethanesfonyl)-octane-1-sulfonyl]-propionic acid hydroxyamide], in data set [5], the “MMP 1 % inhibition at 1 micromolar” value was 10.1%. For the same compound, the “MMP 13 % inhibition at 1 micromolar” value in data set [3] (1 micromolar) was found to be 54.6%. In data set [4], the “MMP 9 % inhibition at 1 micromolar” value worked out at 23.7%.
`COc1ccc(S(=O)(=O)C2(C(=O)NO)CCN(Cc3ccc4ccccc4c3)CC2)cc1` [Example 87, 4-(4methoxy-benzene-sulfonyl)-1-napthalene-2-yl-methylpiperidine-4-carboxylic acid hydroxamide]: the melting point lay in the range of 168 to 170 °C. Also, the IC50 in data set [5] is 0.368 µM. The IC50 in data set [4] (read-out: MMP 9 IC 50) stood at 0.005 µM.
As for `COc1ccc(S(=O)(=O)C2(C(=O)NO)CCN(Cc3ccc(-c4ccccc4)cc3)CC2)cc1` [Example 88, 1-Biphenyl-4-ylmethyl-4-(4-methoxy-benzenesulfonyl)-piperidine-4-carboxylic acid hydroxamide], the IC50 came to 1.33 µM in data set [5] and 0.0128 µM in data set [4] (read-out: MMP 9 IC 50).
In the case of `COc1ccc(SC(C)C(=O)NO)cc1` (stereo not drawn) [Example 111, N-Hydroxy-2-(4-methoxy-benzenesulfanyl)-propionamide], the “MMP 13 % inhibition at 0.2 μM (HTS)” value in data set [1] is given as 10%. Besides, in data set [2], the “TACE % inhibition at 1 mM” value is 40.4%.
Taken in the same sequence, the figures for `CC(C)CCSC(C)C(=O)NO` (stereo not drawn) [Example 112, N-Hydroxy-2-(3-methyl-butane-1-sulfanyl)-propionamide] were 50% and 33.7%.
Take `CCC(SCC(=O)OC)C(=O)NO` (stereo not drawn) [Example 119, (1-Hydroxycarbamoyl-propane-1-sulfanyl)-acetic acid methyl ester]: the “MMP 13 % inhibition at 0.2 μM (HTS)” value in data set [1] worked out at 0%. For the same compound, the “TACE % inhibition at 1 mM” value in data set [2] amounted to 7.8%.
On to `CC(=O)Nc1ccc(SC(Cc2ccccc2)C(=O)NO)cc1` (stereo not drawn) [Example 128, 2-(4-Acetylamino-benzenesulfanyl)-N-hydroxy-3-phenyl-propionamide], for which the IC50 stood at 255 nM in data set [3] (manual, nM) and 0.213 µM in data set [4] (solid phase compounds table, read-out: MMP 9). The inhibition at 0.2 µM in data set [1] (read-out: MMP 13 % inhibition at 0.2 μM (HTS), 0.2 μM) amounted to 91%.
With `O=C(CCC(Sc1ccc(Br)cc1)C(=O)NO)NO` (stereo not drawn) [Example 134, 4-Hydroxycarbamoyl-4-(4-bromo-benzenesulfanyl)-butyric acid hydroxyamide], in data set [1], the “MMP 13 % inhibition at 0.2 μM (HTS)” value was determined as 25%. In data set [2], the “TACE % inhibition at 1 mM” value is −9.31%.
With `O=C(CCC(Sc1ccccc1C(F)(F)F)C(=O)NO)NO` (stereo not drawn) [Example 137, 4-Hydroxycarbamoyl-4-(2-trifluoromethyl-benzenesulfanyl)-butyric acid hydroxyamide], the “MMP 13 % inhibition at 0.2 μM (HTS)” value in data set [1] was determined as 83%. The “TACE % inhibition at 1 mM” value in data set [2] came to 13.35%.
Take `CCCCCCC(Sc1nc(-c2ccccc2)cs1)C(=O)NO` (stereo not drawn) [Example 172, 2-(4-Phenyl-thiazole-2-sulfanyl)-octanoic acid hydroxyamide]: in data set [1], the “MMP 13 % inhibition at 36 nM (HTS)” value is on record as 34%. In data set [2], the “TACE % inhibition at 1 mM” value is reported as 29.4%.
Taken in the same sequence, the figures for `CCCCCCC(Sc1ccc(NS(=O)(=O)c2cc(Cl)sc2Cl)cc1)C(=O)NO` (stereo not drawn) [Example 233] were 33% and 19.8%.
For `CCCCCCC(C(=O)NO)[S+]([O-])c1ccc(NS(=O)(=O)c2c(C)nn(C)c2Cl)cc1` (stereo not drawn) [Example 235, 5-Chloro-1,3-dimethyl-1H-pyrazole-4-sulfonic acid 4-(1-hydroxycarbamoyl-heptylsulfinyl)-hydroxyamide], in that order: 59% and 48.3%.
Taken in the same sequence, the figures for `CCCCCCC(C(=O)NO)[S+]([O-])c1ccc(NS(=O)(=O)c2ccc(-c3ccccn3)s2)cc1` (stereo not drawn) [Example 237, 5-Pyridin-2-yl-thiophene-2-sulfonic acid 4(1-hydroxycarbamoyl-heptylsulfinyl)-hydroxy amide] were 55% and 38.2%.
Take `CCCCCCC(C(=O)NO)S(=O)(=O)c1ccc(NS(=O)(=O)c2cccc3nsnc23)cc1` (stereo not drawn) [Example 240, Benzo[1,2,5]thiadiazole-4-sulfonic acid 4-(1-hydrxycarbamoyl-heptylsulfonyl)-hydroxyamide]: the “MMP 13 % inhibition at 36 nM (HTS)” value in data set [1] came to 48%. In addition, the “TACE % inhibition at 1 mM” value in data set [2] stood at 40.3%.
On to “N-Hydroxy-3-methyl-2-phenethylsulfinyl-butyramide [Example 117]”, for which the “MMP 13 % inhibition at 0.2 μM (HTS)” value in data set [1] is 7%. In addition, in data set [2], the “TACE % inhibition at 1 mM” value is given as 8.1%.

Source of the values: patent publication US6342508B1, “N-hydroxy-2-(Alkyl,Aryl or Heteroaryl sulfanyl, sulfinyl or sulfonyl) 3-substituted alkyl, aryl or heteroarylamides as matrix metalloproteinase inhibitors” (American Cyanamid Company, priority 1997, dated 2002).
